According to PMC8626469, “Helicobacter pylori FabX contains a [4Fe-4S] cluster essential for unsaturated fatty acid synthesis” (Nature Communications, 2021):

Biological target: T1, FabX (Helicobacter pylori, UniProt A0A0B2E3F3)
T1 construct: gene C2842_03950; full length, 363 residues; expressed in E. coli BL21(DE3) Rosetta; monomer in the asymmetric unit; holds FMN and a [4Fe-4S] cluster
T1 sequence (A0A0B2E3F3 1-363): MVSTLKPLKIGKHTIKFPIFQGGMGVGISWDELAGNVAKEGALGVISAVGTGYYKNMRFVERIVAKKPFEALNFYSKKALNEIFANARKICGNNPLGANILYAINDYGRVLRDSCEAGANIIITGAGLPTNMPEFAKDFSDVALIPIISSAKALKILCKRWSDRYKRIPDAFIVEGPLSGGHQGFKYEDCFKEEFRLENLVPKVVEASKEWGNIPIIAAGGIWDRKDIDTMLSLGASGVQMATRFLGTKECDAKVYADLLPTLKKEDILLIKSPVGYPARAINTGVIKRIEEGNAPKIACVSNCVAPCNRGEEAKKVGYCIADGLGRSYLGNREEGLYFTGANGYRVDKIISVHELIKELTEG
Assay: X-ray crystal structure, […] Å
Assay type: binding
Settings: noncovalent in TIM-barrel core; also present in complexes with holo-ACP and octanoyl-ACP

Cc1cc2nc3c(=O)[nH]c(=O)nc-3n(C[C@H](O)[C@H](O)[C@H](O)COP(=O)(O)O)c2cc1C [FMN]
X-ray crystal structure, 1.7 Å: a FMN molecule is noncovalently bound inside the core
